In US20250122193A1, “NOVEL PYRIDOCARBAZOLIUM COMPOUNDS AND MEDICAL USES THEREOF” (MyCural Therapeutics, priority 2021, published 2025):

Tests used:
[1] = oxidative metabolism in human liver microsomes
Excerpt: (§1) First, we performed a pharmacokinetic study of the behavior of the molecule in mice.

ODC1 expression = experiment: MYC target gene ODC1 expression by qPCR; type: cell-based; details: 5 μM
Method: FIG. 1: MYCMI-7 (Compound Example 1) inhibits the MYC:MAX interaction in cells, bind MYC in vitro, and blocks MYC function. A) Molecular structure of MYCMI-7. B-E) split Gaussia luciferase (GLuc) assay. MYC or MYCN and MAX Gluc constructs were co-transfected into HeLa cells together with a firefly luciferase vector. 24 hours post transfection cells were treated with compounds, and after another 17-24 hours cells were harvested and both GLuc and firefly luciferase activities were measured. The mean of three different experiments is shown. Treatment with: B) 5 μM of MYCMI-7, 64 μM 10058-F4 or 5 μM JQ1, respectively, C) 6.5 μM MYCMI-7 on cells expressing MYC:MAX GLuc vs. GCN4:GCN4 GLuc, D) 5 μM MYCMI-7 and 5 μM ellipticine. E) 5 μM MYCMI-7 for various time points. F) in situ proximity ligation assay (isPLA). […] MYC:GAL4 was used as negative control in the isPLA assay. G) Quantification of isPLA dots. (H) Co-immunoprecipitation (co-IP) of endogenous MYC and MAX proteins from MCF7 cells after treatment with 5 μM MYCMI-7 at various times. IP=immunoprecipitation; W=western blot. […] J) MYC target gene ODC1 expression after treatment with 5 μM MYCMI-7, quantified by qPCR. […] L) Recombinant MYC bHLHZip protein domain immobilized onto a CM5 chip was subjected to various concentrations of MYCMI-7 and the complex of MYCbHLHZip-MYCMI-7 was measured as response units by SPR. […]

[2] = test system: Rat1 fibroblasts TGR1 (wt MYC) and HOMyc3 (reconstituted MYC); experiment: WST-1 growth/viability assay, MYC-expressing Rat1 fibroblasts; type: cell-based, rat; details: Rattus norvegicus, TGR1, 48 h, read-out: GI50 (average growth inhibition of 50%)
Method: A) Immortalized Rat1 fibroblasts with different MYC status; TGR1 (wt MYC), HO15.19 (MYC−/−) and HOMyc3 (HO15.19 with reconstituted MYC) were treated with indicated concentrations of MYCMI-7 for 48 hours. Cell proliferation/viability/metabolic activity was measured using the WST-1 assay. […] “Responsive” and “less responsive”; cell lines with positive and negative log 10 GI50 values, respectively. […] For the WST-1 assays the average of three different experiments performed in triplicates is shown.
Cell growth and viability assays: Cell growth and viability was estimated in triplicates with WST-1 (Roche) or Resazurin sodium salt (Sigma-Aldrich) assays in medium at 37° C. and 5% CO2 for 2 hours after which absorbance or fluorescence, respectively, was measured with an Omega Fluostar (BMG Labtech) in a 96 well plate format.

[3] = oxidative metabolism in mouse liver microsomes
Excerpt: as §1

[4] = test system: wt and p53-deficient HCT116 cells; experiment: WST1 assay in wt and p53-deficient HCT116 cells; type: cell-based; details: titration
MYCN:MAX interaction = molecular target: T1, MYCN:MAX interaction (Homo sapiens, UniProt P04198); experiment: split Gaussia luciferase (GLuc) assay, MYCN:MAX; type: cell-based; details: 5 μM, HeLa cells
T1 construct: replacing the existing Zip-gene (GCN4) with full length MYC, MYCN or MAX cDNA; expressed in transfected cells; host or cells: HeLa
T1 sequence (P04198 1-464): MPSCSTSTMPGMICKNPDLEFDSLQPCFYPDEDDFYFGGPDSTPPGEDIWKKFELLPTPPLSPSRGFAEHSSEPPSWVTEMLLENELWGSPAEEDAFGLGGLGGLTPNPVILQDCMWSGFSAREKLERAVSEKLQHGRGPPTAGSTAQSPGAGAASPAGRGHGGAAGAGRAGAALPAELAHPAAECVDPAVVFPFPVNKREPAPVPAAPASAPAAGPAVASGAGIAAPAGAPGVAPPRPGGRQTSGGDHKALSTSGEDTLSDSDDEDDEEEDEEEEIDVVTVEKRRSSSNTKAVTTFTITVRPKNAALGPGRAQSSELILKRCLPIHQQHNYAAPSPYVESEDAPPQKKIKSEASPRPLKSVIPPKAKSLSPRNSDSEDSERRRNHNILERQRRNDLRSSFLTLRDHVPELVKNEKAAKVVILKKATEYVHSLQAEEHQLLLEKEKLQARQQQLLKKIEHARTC
Method: A) Molecular structure of MYCMI-7. B-E) split Gaussia luciferase (GLuc) assay. MYC or MYCN and MAX Gluc constructs were co-transfected into HeLa cells together with a firefly luciferase vector. 24 hours post transfection cells were treated with compounds, and after another 17-24 hours cells were harvested and both GLuc and firefly luciferase activities were measured. The mean of three different experiments is shown. Treatment with: B) 5 μM of MYCMI-7, 64 μM 10058-F4 or 5 μM JQ1, respectively, C) 6.5 μM MYCMI-7 on cells expressing MYC:MAX GLuc vs. GCN4:GCN4 GLuc, D) 5 μM MYCMI-7 and 5 μM ellipticine. E) 5 μM MYCMI-7 for various time points. F) in situ proximity ligation assay (isPLA). […] MYC:GAL4 was used as negative control in the isPLA assay. G) Quantification of isPLA dots. (H) Co-immunoprecipitation (co-IP) of endogenous MYC and MAX proteins from MCF7 cells after treatment with 5 μM MYCMI-7 at various times. IP=immunoprecipitation; W=western blot. I) Chromatin immunoprecipitation (ChIP) of MYC at the ODC1 target gene promoter after treatment of cells with 5 μM MYCMI-7 for 6 hours. J) MYC target gene ODC1 expression after treatment with 5 μM MYCMI-7, quantified by qPCR. […] L) Recombinant MYC bHLHZip protein domain immobilized onto a CM5 chip was subjected to various concentrations of MYCMI-7 and the complex of MYCbHLHZip-MYCMI-7 was measured as response units by SPR. […]
0.2-0.4 μg of each GLuc-construct together with 0.05 μg pCMV-LUC (firefly luciferase) were used per transfection in 12 well plates. […] After 60 min incubation at room temperature 20 μM D-luciferin was added (substrate of Firefly luciferase) and luminescence was measured in a Lumat LB9501 (Berthold) or OmegaFluostar (BMG Labtech) luminometer. Directly after, Gaussia luciferase substrate Coelenterazine (Promega) was added to a final concentration of 20 μM in a mixture with “Stop n' Glow” (Promega) and the luciferase activity was measured. The ratio between Gaussia and Firefly luciferase values were calculated and normalized to DMSO-treated control cells.

CCN(CC)CC[n+]1ccc2c(C)c3[nH]c4ccccc4c3c(C)c2c1 [MYCMI-7, 2-(5,11-Dimethyl-6H-25-pyrido[4,3-b]carbazol-2-yl)-N,N-diethylethanamine bromide]
stability against oxidative metabolism [1]: stable
ODC1 expression (ODC1 expression): reduced ODC1 expression
GI50 [2]: ~2000 nM
stability against oxidative metabolism [3]: stable
growth response or MYC expression, wt versus p53-deficient cells [4]: no difference
inhibition of MYCN:MAX GLuc interaction (MYCN:MAX interaction): inhibited
